{"source": "patent US10131702B2", "about": "“Glucagon-GLP-1-GIP triple agonist compounds” (priority 2013, dated 2018)", "assay_type_in_all_cases": "cell-based", "key": {"human GIP R": {"biological_target": "T1, human GIP R (Homo sapiens, UniProt P48546)", "T1 construct": "expressed in transfected cells", "T1 sequence (P48546 22-466)": "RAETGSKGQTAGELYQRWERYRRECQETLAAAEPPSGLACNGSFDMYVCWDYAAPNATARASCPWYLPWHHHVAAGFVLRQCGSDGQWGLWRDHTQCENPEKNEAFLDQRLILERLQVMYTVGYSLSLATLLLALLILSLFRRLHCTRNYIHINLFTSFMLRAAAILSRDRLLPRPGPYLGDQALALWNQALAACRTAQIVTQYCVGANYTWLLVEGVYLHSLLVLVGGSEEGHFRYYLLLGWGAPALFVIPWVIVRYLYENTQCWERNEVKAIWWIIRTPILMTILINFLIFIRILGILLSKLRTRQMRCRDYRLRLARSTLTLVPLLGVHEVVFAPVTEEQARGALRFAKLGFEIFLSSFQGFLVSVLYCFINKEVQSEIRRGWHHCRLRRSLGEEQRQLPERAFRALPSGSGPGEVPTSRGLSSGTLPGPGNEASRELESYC", "test": "cAMP induction in HEK293 cells expressing human GIP R (AlphaScreen cAMP kit)"}, "human GCG R": {"biological_target": "T2, human GCG R (Homo sapiens, UniProt P47871)", "T2 construct": "expressed in transfected cells", "T2 sequence (P47871 26-477)": "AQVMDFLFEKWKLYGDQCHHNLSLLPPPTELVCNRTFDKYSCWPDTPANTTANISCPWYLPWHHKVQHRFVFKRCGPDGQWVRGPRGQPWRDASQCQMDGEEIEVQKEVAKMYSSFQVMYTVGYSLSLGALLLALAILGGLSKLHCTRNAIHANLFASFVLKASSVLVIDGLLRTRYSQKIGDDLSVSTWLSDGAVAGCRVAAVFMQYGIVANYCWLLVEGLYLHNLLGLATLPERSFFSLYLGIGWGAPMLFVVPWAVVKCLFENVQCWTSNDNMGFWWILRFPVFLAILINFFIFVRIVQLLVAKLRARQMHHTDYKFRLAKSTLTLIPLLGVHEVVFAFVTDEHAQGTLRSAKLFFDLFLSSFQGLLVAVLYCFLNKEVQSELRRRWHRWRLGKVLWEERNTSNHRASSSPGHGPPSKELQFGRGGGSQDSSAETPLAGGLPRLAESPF", "test": "cAMP induction in HEK293 cells expressing human GCG R (AlphaScreen cAMP kit)"}, "human GLP-1 R": {"biological_target": "T3, human GLP-1 R (Homo sapiens, UniProt P43220)", "T3 construct": "expressed in transfected cells", "T3 sequence (P43220 24-463)": "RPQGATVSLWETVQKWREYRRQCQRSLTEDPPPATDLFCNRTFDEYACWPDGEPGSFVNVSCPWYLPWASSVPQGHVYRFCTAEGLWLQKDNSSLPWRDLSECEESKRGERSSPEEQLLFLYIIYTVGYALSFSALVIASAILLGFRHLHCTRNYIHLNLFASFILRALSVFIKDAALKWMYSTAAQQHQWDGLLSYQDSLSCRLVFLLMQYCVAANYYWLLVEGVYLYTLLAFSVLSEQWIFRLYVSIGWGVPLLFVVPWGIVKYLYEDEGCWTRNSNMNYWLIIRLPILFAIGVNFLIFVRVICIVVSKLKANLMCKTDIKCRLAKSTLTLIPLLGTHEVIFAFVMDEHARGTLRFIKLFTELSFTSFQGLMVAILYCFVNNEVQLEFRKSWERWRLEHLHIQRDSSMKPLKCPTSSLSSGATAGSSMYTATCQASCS", "test": "cAMP induction in HEK293 cells expressing human GLP-1 R (AlphaScreen cAMP kit)", "conditions": "average EC50, cAMP, HEK293 cells expressing human GLP-1 R, read-out: GLP1 R (EC50 in nM)"}, "[1]": {"conditions": "Table 2b (most comprehensive data), average EC50, cAMP, read-out: GIP R (EC50 in nM)"}, "[2]": {"conditions": "Table 2b (most comprehensive data), average EC50, cAMP, HEK293 cells expressing human GCG R, read-out: GCG R (EC50 in nM)"}, "[3]": {"conditions": "Table 2b (most comprehensive data)"}}, "note": "Read-outs that look alike come from different tables or passages of the source. Numbered stars: 1 amine (or outer) side, 2 acyl side, 3 side chain; on linkers, the order of the positions; unused ones are H or OH. Square brackets hold non-standard residues; d marks the D form. Side chains are listed from the residue outwards. Peptide text beside a SMILES is read from it. * marks the point of attachment. C18 diacid = O=C(O)CCCCCCCCCCCCCCCCC(=O)*; γGlu = O=C(O)[C@H](CCC(=O)[*:2])N[*:1]; Stearoyl = CCCCCCCCCCCCCCCCCC(=O)*; AEEA = NCCOCCOCC(=O)O; Aib = CC(C)(N)C(=O)O"}
{"smiles": "CCCCCCCCCCCCCCCCCC(=O)N[C@@H](CCC(=O)NCCOCCOCC(=O)NCCOCCOCC(=O)NCCCC[C@H](NC(=O)[C@H](CCCCN)NC(=O)[C@H](CCC(=O)O)NC(=O)[C@H](CC(C)C)NC(=O)[C@H](C)NC(=O)[C@@H](NC(=O)[C@H](CO)NC(=O)[C@H](CC(C)C)NC(=O)[C@H](CC(=O)O)NC(=O)[C@H](CO)NC(=O)[C@@H](NC(=O)[C@H](Cc1ccccc1)NC(=O)[C@@H](NC(=O)CNC(=O)[C@H](CCC(N)=O)NC(=O)C(C)(C)NC(=O)[C@@H](N)Cc1ccc(O)cc1)[C@@H](C)O)[C@@H](C)O)[C@@H](C)CC)C(=O)N[C@@H](C)C(=O)N[C@@H](CCC(N)=O)C(=O)N[C@@H](CCCNC(=N)N)C(=O)N[C@@H](C)C(=O)N[C@@H](Cc1ccccc1)C(=O)N[C@H](C(=O)N[C@@H](CCC(=O)O)C(=O)N[C@@H](Cc1c[nH]c2ccccc12)C(=O)N[C@@H](CC(C)C)C(=O)N[C@@H](CC(C)C)C(=O)N[C@@H](C)C(=O)N[C@@H](CCC(N)=O)C(=O)N[C@@H](CCCCN)C(N)=O)C(C)C)C(=O)O", "note": "[Compound 48] (H-Y[Aib]QGTFTSDLSIALEKK([AEEA-AEEA-γGlu-Stearoyl])AQRAFVEWLLAQK-NH2)", "values": [{"measurement": "EC50", "setting": "human GIP R; [1]", "result": 0.013, "unit": "nM"}, {"measurement": "EC50", "setting": "human GCG R; [2]", "result": 0.19, "unit": "nM"}, {"measurement": "EC50", "setting": "human GLP-1 R; [3]", "result": 0.013, "unit": "nM"}]}
{"smiles": "CC(C)C[C@H](NC(=O)[C@H](CC(C)C)NC(=O)[C@H](Cc1c[nH]c2ccccc12)NC(=O)[C@H](CCC(=O)O)NC(=O)[C@@H](NC(=O)[C@H](Cc1ccccc1)NC(=O)[C@H](CCC(=O)O)NC(=O)[C@H](CCCCN)NC(=O)[C@H](CCC(N)=O)NC(=O)[C@H](C)NC(=O)[C@H](CCCCN)NC(=O)[C@H](CCCCN)NC(=O)[C@H](CCC(=O)O)NC(=O)[C@H](CC(C)C)NC(=O)[C@H](Cc1ccc(O)cc1)NC(=O)[C@H](CCCCN)NC(=O)[C@H](CO)NC(=O)[C@H](Cc1ccc(O)cc1)NC(=O)[C@H](CC(=O)O)NC(=O)[C@H](CO)NC(=O)[C@@H](NC(=O)[C@H](Cc1ccccc1)NC(=O)[C@@H](NC(=O)CNC(=O)[C@H](CCC(N)=O)NC(=O)C(C)(C)NC(=O)[C@@H](N)Cc1ccc(O)cc1)[C@@H](C)O)[C@@H](C)O)C(C)C)C(=O)N[C@@H](CO)C(=O)N[C@@H](C)C(N)=O", "note": "[Compound 22] (HELM PEPTIDE1{Y.[Aib].Q.G.T.F.T.S.D.Y.S.K.Y.L.E.K.K.A.Q.K.E.F.V.E.W.L.L.S.A.[am]}$$$$V2.0)", "values": [{"measurement": "EC50", "setting": "human GIP R; GIP R (EC50 in nM), Table 2, average EC50, cAMP", "result": 0.18, "unit": "nM"}, {"measurement": "EC50", "setting": "human GIP R; GIP R (EC50 in nM), Table 2b (most comprehensive data), average EC50, cAMP", "result": 0.03, "unit": "nM"}, {"measurement": "EC50", "setting": "human GCG R", "result": 0.76, "unit": "nM"}, {"measurement": "EC50", "setting": "human GLP-1 R; Table 2", "result": 0.028, "unit": "nM"}]}
{"smiles": "CC[C@H](C)[C@H](NC(=O)[C@H](CO)NC(=O)[C@H](Cc1ccc(O)cc1)NC(=O)[C@H](CC(=O)O)NC(=O)[C@H](CO)NC(=O)[C@@H](NC(=O)[C@H](Cc1ccccc1)NC(=O)[C@@H](NC(=O)CNC(=O)[C@H](CCC(N)=O)NC(=O)C(C)(C)NC(=O)[C@@H](N)Cc1ccc(O)cc1)[C@@H](C)O)[C@@H](C)O)C(=O)N[C@@H](Cc1ccc(O)cc1)C(=O)N[C@@H](CC(C)C)C(=O)N[C@@H](CC(=O)O)C(=O)N[C@@H](CCCCN)C(=O)N[C@@H](CCCCNC(=O)COCCOCCNC(=O)COCCOCCNC(=O)CC[C@H](NC(=O)CCCCCCCCCCCCCCCCC(=O)O)C(=O)O)C(=O)N[C@@H](C)C(=O)N[C@@H](CCC(N)=O)C(=O)N[C@@H](CCCNC(=N)N)C(=O)N[C@@H](C)C(=O)N[C@@H](Cc1ccccc1)C(=O)N[C@H](C(=O)N[C@@H](CCC(=O)O)C(=O)N[C@@H](Cc1c[nH]c2ccccc12)C(=O)N[C@@H](CC(C)C)C(=O)N[C@@H](CC(C)C)C(=O)N[C@@H](C)C(=O)N[C@@H](CCC(N)=O)C(=O)NCC(=O)N1CCC[C@H]1C(=O)N[C@@H](CO)C(=O)N[C@@H](CO)C(=O)NCC(=O)N[C@@H](C)C(=O)N1CCC[C@H]1C(=O)N1CCC[C@H]1C(=O)N1CCC[C@H]1C(=O)N[C@@H](CO)C(N)=O)C(C)C", "note": "[Compound 33] (H-Y[Aib]QGTFTSDYSIYLDKK([AEEA-AEEA-γGlu-C18 diacid])AQRAFVEWLLAQGPSSGAPPPS-NH2)", "values": [{"measurement": "EC50", "setting": "human GIP R; [1]", "result": 0.009, "unit": "nM"}, {"measurement": "EC50", "setting": "human GCG R; [2]", "result": 0.58, "unit": "nM"}, {"measurement": "EC50", "setting": "human GLP-1 R; [3]", "result": 0.114, "unit": "nM"}]}
